We go through 18 molecules from patent US20120040955A1 (priority 2009, published 2012).

The structures appear in SMILES notation.

One assay has as its target T1, JAK2 (Homo sapiens, UniProt O60674).
T1 construct: endogenous in cells; host or cells: Mixed Molt4 / Ramos cell lysate (1:2)
Kind of assay: kinobeads assay (competition with affinity matrix in mixed Molt4/Ramos cell lysate, dot blot detection), JAK2. It is filed as binding. Conditions: activity level. On the procedure: (§1) The compounds of the present invention as described in the previous examples were tested in a kinobeads assay as described for ZAP-70 (WO-A 2007/137867). Briefly, test compounds (at various concentrations) and the affinity matrix with the immobilized aminopyrido-pyrimidine ligand 24 were added to cell lysate aliquots and allowed to bind to the proteins in the lysate sample. After the incubation time the beads with captured proteins were separated from the lysate. Bound proteins were then eluted and the presence of, JAK2 and JAK3 was detected and quantified using specific antibodies in a dot blot procedure and the Odyssey infrared detection system. Dose response curves for individual kinases were generated and IC50 values calculated. Kinobeads assays for ZAP-70 (WO-A 2007/137867) and for kinase selectivity profiling (WO-A 2006/134056) have been previously described.
(§2) 5× DP buffer: 250 mM Tris-HCl pH 7.4, 25% Glycerol, 7.5 mM MgCl2, 750 mM NaCl, 5 mM Na3VO4; filter the 5× DP buffer through a 0.22 μm filter and store in aliquots at −80° C. The 5× DP buffer is diluted with H2O to 1× DP buffer containing 1 mM DTT and 25 mM NaF.
(§3) Stock solutions of test compounds were prepared in DMSO. In a 96 well plate 30 μl solution of diluted test compounds at 5 mM in DMSO were prepared. Starting with this solution a 1:3 dilution series (9 steps) was prepared. For control experiments (no test compound) a buffer containing 2% DMSO was used.
(§4) Molt4 cells (ATCC catalogue number CRL-1582) and Ramos cells (ATCC catalogue number CRL-1596) were grown in 1 litre Spinner flasks (Integra Biosciences, #182101) in suspension in RPMI 1640 medium (Invitrogen, #21875-034) supplemented with 10% Fetal Bovine Serum (Invitrogen) at a density between 0.15×10^6 and 1.2×10^6 cells/ml. Cells were harvested by centrifugation, washed once with 1× PBS buffer (Invitrogen, #14190-094) and cell pellets were frozen in liquid nitrogen and subsequently stored at −80° C. Cells were homogenized in a Potter S homogenizer in lysis buffer: 50 mM Tris-HCl, 0.8% NP40, 5% glycerol, 150 mM NaCl, 1.5 mM MgCl2, 25 mM NaF, 1 mM sodium vanadate, 1 mM DTT, pH 7.5. One complete EDTA-free tablet (protease inhibitor cocktail, Roche Diagnostics, 1873580) per 25 ml buffer was added. The material was dounced 10 times using a mechanized POTTER S, transferred to 50 ml falcon tubes, incubated for 30 minutes on ice and spun down for 10 min at 20,000 g at 4° C. (10,000 rpm in Sorvall SLA600, precooled). The supernatant was transferred to an ultracentrifuge (UZ)-polycarbonate tube (Beckmann, 355654) and spun for 1 hour at 100.000 g at 4° C. (33.500 rpm in Ti50.2, precooled). The supernatant was transferred again to a fresh 50 ml falcon tube, the protein concentration was determined by a Bradford assay (BioRad) and samples containing 50 mg of protein per aliquot were prepared. The samples were immediately used for experiments or frozen in liquid nitrogen and stored frozen at −80° C.
(§5) Cell lysate (approximately 50 mg protein per plate) was thawed in a water bath at room temperature and then kept on ice. To the thawed cell lysate 1× DP 0.8% NP40 buffer containing protease inhibitors (1 tablet for 25 ml buffer; EDTA-free protease inhibitor cocktail; Roche Diagnostics 1873580) was added in order to reach a final protein concentration of 5 mg/ml total protein. The diluted cell lysate was stored on ice. Mixed Molt4/Ramos lysate was prepared by combining one volume of Molt4 lysate and two volumes of Ramos lysate (ratio 1:2).
(§6) To a 96 well filter plate (Multiscreen HTS, BV Filter Plates, Millipore #MSBVN1250) were added per well: 100 μl affinity matrix (3% beads slurry), 3 μl of compound solution, and 50 μl of diluted lysate. Plates were sealed and incubated for three hours in a cold room on a plate shaker (Heidolph tiramax 1000) at 750 rpm. Afterwards the plate was washed twice with 230 μl washing buffer (1× DP 0.4% NP40). […]

The next assay deals with T2, JAK3 (Homo sapiens, UniProt P52333).
T2 construct: endogenous in cells; host or cells: Mixed Molt4 / Ramos cell lysate (1:2)
T2 sequence (P52333 1-1124): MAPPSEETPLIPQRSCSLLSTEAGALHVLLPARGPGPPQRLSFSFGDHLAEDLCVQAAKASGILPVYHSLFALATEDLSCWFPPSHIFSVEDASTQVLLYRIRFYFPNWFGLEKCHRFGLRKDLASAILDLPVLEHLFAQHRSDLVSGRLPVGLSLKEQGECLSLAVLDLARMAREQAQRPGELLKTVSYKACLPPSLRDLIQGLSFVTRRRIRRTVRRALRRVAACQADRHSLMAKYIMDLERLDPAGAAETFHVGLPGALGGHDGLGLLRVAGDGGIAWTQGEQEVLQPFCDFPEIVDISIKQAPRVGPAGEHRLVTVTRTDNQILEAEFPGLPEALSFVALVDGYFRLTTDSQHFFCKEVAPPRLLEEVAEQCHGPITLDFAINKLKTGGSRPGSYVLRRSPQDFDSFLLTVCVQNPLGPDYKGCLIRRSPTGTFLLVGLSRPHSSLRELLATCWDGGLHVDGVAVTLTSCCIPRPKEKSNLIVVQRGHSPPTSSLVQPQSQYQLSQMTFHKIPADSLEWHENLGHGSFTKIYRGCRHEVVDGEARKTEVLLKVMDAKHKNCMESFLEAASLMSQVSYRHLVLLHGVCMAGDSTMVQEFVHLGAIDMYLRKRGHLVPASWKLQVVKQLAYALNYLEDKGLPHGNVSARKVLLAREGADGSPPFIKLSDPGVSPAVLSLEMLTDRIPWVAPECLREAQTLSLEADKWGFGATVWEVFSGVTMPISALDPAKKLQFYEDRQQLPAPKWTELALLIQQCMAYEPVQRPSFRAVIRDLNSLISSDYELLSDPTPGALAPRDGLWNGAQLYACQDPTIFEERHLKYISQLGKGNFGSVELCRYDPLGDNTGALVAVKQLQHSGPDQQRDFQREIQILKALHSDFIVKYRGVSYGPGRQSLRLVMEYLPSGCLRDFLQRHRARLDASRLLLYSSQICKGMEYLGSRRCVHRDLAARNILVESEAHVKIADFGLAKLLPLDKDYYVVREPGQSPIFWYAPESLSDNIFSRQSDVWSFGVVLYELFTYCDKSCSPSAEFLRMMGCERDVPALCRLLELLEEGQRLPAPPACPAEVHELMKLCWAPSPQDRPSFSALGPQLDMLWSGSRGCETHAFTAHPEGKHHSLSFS
Kind of assay: kinobeads assay (competition with affinity matrix in mixed Molt4/Ramos cell lysate, dot blot detection), JAK3. Format: binding. The conditions noted are these: activity level. On the procedure:
as §1, §2, §3, §4, §5, §6

T1 sequence (O60674 whole entry): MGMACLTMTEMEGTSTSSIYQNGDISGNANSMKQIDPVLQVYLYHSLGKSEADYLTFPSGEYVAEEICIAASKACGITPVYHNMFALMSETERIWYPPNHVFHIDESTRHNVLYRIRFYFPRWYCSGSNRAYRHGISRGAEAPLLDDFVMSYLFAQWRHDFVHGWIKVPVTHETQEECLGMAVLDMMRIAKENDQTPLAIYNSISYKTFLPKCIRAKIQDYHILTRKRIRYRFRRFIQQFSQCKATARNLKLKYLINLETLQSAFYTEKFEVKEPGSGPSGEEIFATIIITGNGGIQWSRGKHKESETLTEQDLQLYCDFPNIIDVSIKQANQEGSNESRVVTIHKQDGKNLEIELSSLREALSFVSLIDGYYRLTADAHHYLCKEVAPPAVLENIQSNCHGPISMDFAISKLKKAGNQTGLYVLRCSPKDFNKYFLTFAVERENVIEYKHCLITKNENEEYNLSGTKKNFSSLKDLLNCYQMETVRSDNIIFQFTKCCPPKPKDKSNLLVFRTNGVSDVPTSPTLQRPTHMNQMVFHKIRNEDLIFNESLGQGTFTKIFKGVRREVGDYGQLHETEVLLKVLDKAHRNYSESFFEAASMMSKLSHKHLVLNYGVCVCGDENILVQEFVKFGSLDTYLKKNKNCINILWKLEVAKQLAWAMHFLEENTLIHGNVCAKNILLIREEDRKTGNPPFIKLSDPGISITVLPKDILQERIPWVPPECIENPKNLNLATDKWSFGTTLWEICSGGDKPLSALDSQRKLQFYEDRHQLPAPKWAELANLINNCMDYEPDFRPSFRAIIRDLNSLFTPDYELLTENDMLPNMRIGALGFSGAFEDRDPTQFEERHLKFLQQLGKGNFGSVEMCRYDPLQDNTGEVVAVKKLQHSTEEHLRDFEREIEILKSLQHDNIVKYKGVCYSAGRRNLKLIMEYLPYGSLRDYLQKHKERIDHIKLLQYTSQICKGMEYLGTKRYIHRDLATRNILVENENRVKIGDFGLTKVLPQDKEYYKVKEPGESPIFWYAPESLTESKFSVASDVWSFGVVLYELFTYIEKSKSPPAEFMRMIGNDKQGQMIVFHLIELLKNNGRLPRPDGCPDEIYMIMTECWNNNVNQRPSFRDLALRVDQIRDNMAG

With `CS(=O)(=O)Nc1ccccc1Nc1nc(Nc2cc(C(=O)NCCO)ccc2F)ncc1Cl` [Example 22, 3-(5-chloro-4-(2-(methylsulfonamido)phenylamino)pyrimidin-2-ylamino)-4-fluoro-N-(2-hydroxyethyl)benzamide], the half-inhibitory concentration (IC50) at JAK2 was 1000 to 10000 nM; at JAK3 it was below 100 nM.
Turning to `CS(=O)(=O)Nc1ccccc1Nc1nc(Nc2cc(C(=O)NCC#N)ccc2F)ncc1Cl` [Example 25], the figures for the IC50 on JAK2 and on JAK3 were 1000 to 10000 nM and below 100 nM, respectively.
As to `CS(=O)(=O)Nc1ccccc1Nc1nc(Nc2ccc(C#N)cc2F)ncc1Cl` [Example 26, N-(2-(5-chloro-2-(4-cyano-2-fluorophenylamino)pyrimidin-4-ylamino)phenyl)methanesulfonamide], the IC50 at JAK2 is above 10000 nM; on JAK3, 100 to 1000 nM.
On the same counts, the results for `CS(=O)(=O)Nc1ccccc1Nc1nc(Nc2cc(C#N)ccc2F)ncc1Cl` [Example 28, N-(2-(5-chloro-2-(5-cyano-2-fluorophenylamino)pyrimidin-4-ylamino)phenyl)methanesulfonamide] are above 10000 nM and below 100 nM.
In the same order, the values of `CS(=O)(=O)Nc1ccccc1Nc1nc(Nc2cc(C(N)=O)ccc2F)ncc1F` [Example 29, 4-fluoro-3-(5-fluoro-4-(2-(methylsulfonamido)phenylamino)pyrimidin-2-ylamino)benzamide] are above 10000 nM and 100 to 1000 nM.
On the same counts, the results for `CNC(=O)c1ccc(F)c(Nc2ncc(F)c(Nc3ccccc3NS(C)(=O)=O)n2)c1` [Example 30, 3-(5-fluoro-4-(2-(methylsulfonamido)phenylamino)pyrimidin-2-ylamino)-4-fluoro-N-methybenzamide] are above 10000 nM and 100 to 1000 nM.
For the molecule `CC(C)NC(=O)c1ccc(F)c(Nc2ncc(F)c(Nc3ccccc3NS(C)(=O)=O)n2)c1` [Example 31], the values for the IC50 on JAK2 and at JAK3 were above 10000 nM and 100 to 1000 nM, respectively.
Consider `CS(=O)(=O)Nc1ccccc1Nc1nc(Nc2cc(C(=O)NC3CC3)ccc2F)ncc1F` [Example 32, 3-(5-fluoro-4-(2-(methylsulfonamido)phenylamino)pyrimidin-2-ylamino)-N-cyclopropyl-4-fluorobenzamide], for which the IC50 was above 10000 nM at JAK2 and 100 to 1000 nM at JAK3.
Turning to `CCNC(=O)c1ccc(F)c(Nc2ncc(Cl)c(Nc3ccccc3NS(=O)(=O)CC)n2)c1` [Example 39, 3-(5-chloro-4-(2-(ethylsulfonamido)phenylamino)pyrimidin-2-ylamino)-N-ethyl-4-fluorobenzamide], the IC50 is above 10000 nM at JAK2 and below 100 nM on JAK3.
On the same counts, the results for `CCN(CC)C(=O)c1ccc(F)c(Nc2ncc(Cl)c(Nc3ccccc3NS(=O)(=O)CC)n2)c1` [Example 40, 3-(5-chloro-4-(2-(ethylsulfonamido)phenylamino)pyrimidin-2-ylamino)-N,N-diethyl-4-fluorobenzamide] are above 10000 nM and below 100 nM.
In the same order, the values of `CCS(=O)(=O)Nc1ccccc1Nc1nc(Nc2cc(C(=O)N3CCCC3)ccc2F)ncc1Cl` [Example 41, N-(2-(5-chloro-2-(2-fluoro-5-(pyrrolidine-1-carbonyl)phenylamino)pyrimidin-4-ylamino)phenyl)ethanesulfonamide] are above 10000 nM and 100 to 1000 nM.
In the same order, the values of `CCS(=O)(=O)Nc1ccccc1Nc1nc(Nc2cc(C(=O)NC3CC3)ccc2F)ncc1Cl` [Example 42, 3-(5-chloro-4-(2-(ethylsulfonamido)phenylamino)pyrimidin-2-ylamino)-N-cyclopropyl-4-fluorobenzamide] are above 10000 nM and below 100 nM.
`CCS(=O)(=O)Nc1ccccc1Nc1nc(Nc2cc(C#N)ccc2F)ncc1Cl` [Example 43, N-(2-(5-chloro-2-(5-cyano-2-fluorophenylamino)pyrimidin-4-ylamino)phenyl)ethanesulfonamide]: the IC50 at JAK2 is above 10000 nM; at JAK3 it was 100 to 1000 nM.
On the same counts, the results for `CCNC(=O)c1ccc(F)c(Nc2ncc(Cl)c(Nc3ccccc3NS(=O)(=O)CC(F)(F)F)n2)c1` [Example 44, 3-(5-chloro-4-(2-(2,2,2-trifluoroethylsulfonamido)phenylamino)pyrimidin-2-ylamino)-N-ethyl-4-fluorobenzamide] are above 10000 nM and 100 to 1000 nM.
On the same counts, the results for `COCCNC(=O)c1ccc(F)c(Nc2ncc(Cl)c(Nc3ccccc3NS(C)(=O)=O)n2)c1` [Example 53, 3-(5-chloro-4-(2-(methylsulfonamido)phenylamino)pyrimidin-2-ylamino)-4-fluoro-N-(2-methoxyethyl)benzamide] are above 10000 nM and below 100 nM.
In the same order, the values of `CS(=O)(=O)Nc1ccccc1Nc1nc(Nc2cc(C(=O)N3CCOCC3)ccc2F)ncc1Cl` [Example 54, N-(2-(5-chloro-2-(2-fluoro-5-(morpholine-4-carbonyl)phenylamino)pyrimidin-4-ylamino)phenyl)methanesulfonamide] are above 10000 nM and below 100 nM.
As for `CS(=O)(=O)Nc1c(F)cccc1Nc1nc(Nc2cc(-n3cnnn3)ccc2F)ncc1Cl` [Example 55, N-(2-(5-chloro-2-(2-fluoro-5-(1H-tetrazol-1-yl)phenylamino)pyrimidin-4-ylamino)-6-fluorophenyl)methanesulfonamide], the IC50 is 100 to 1000 nM on JAK2 and below 100 nM on JAK3.
In the same order, the values of `CNC(=O)c1cccc(Nc2ncc(Cl)c(Nc3ccccc3NS(C)(=O)=O)n2)c1F` [Example 56, 3-(5-chloro-4-(2-(methylsulfonamido)phenylamino)pyrimidin-2-ylamino)-2-fluoro-N-methylbenzamide] are 1000 to 10000 nM and below 100 nM.
